Test results published in patent US9770445B2, “Sulfoximine substituted 5-fluoro-N-(pyridin-2-yl)pyridin-2-amine derivatives and their use as CDK9 kinase inhibitors” (BAYER PHARMA AKTIENGESELLSCHAFT, priority 2013, dated 2017).

Legend:
[1] = test system: A2780, human ovarian carcinoma cells; assay: Proliferation assay, A2780 (crystal violet); type: cell-based; conditions: 96 h, A2780, 4 days, read-out: Inhibition of A2780 cell proliferation
Procedure: Cultivated tumour cells (HeLa, human cervical tumour cells, ATCC CCL-2; NCI-H460, human non-small cell lung carcinoma cells, ATCC HTB-177; A2780, human ovarian carcinoma cells, ECACC #93112519; DU 145, hormone-independent human prostate carcinoma cells, ATCC HTB-81; HeLa-MaTu-ADR, multidrug-resistant human cervical carcinoma cells, EPO-GmbH Berlin; Caco-2, human colorectal carcinoma cells, ATCC HTB-37; B16F10, mouse melanoma cells, ATCC CRL-6475) were plated at a density of 5,000 cells/well (DU145, HeLa-MaTu-ADR), 3,000 cells/well (NCI-H460, HeLa), 2,500 cells/well (A2780), 1,500 cells/well (Caco-2), or 1,000 cells/well (B16F10) in a 96-well multititer plate in 200 μL of their respective growth medium supplemented 10% fetal calf serum. After 24 hours, the cells of one plate (zero-point plate) were stained with crystal violet (see below), while the medium of the other plates was replaced by fresh culture medium (200 μl), to which the test substances were added in various concentrations (0 μM, as well as in the range of 0.001-10 μM; the final concentration of the solvent dimethyl sulfoxide was 0.5%). The cells were incubated for 4 days in the presence of test substances. Cell proliferation was determined by staining the cells with crystal violet: the cells were fixed by adding 20 μl/measuring point of an 11% glutaric aldehyde solution for 15 minutes at room temperature. After three washing cycles of the fixed cells with water, the plates were dried at room temperature. The cells were stained by adding 100 μl/measuring point of a 0.1% crystal violet solution (pH 3.0). After three washing cycles of the stained cells with water, the plates were dried at room temperature. The dye was dissolved by adding 100 μl/measuring point of a 10% acetic acid solution. The extinction was determined by photometry at a wavelength of 595 nm. The change of cell number, in percent, was calculated by normalization of the measured values to the extinction values of the zero-point plate (=0%) and the extinction of the untreated (0 μm) cells (=100%). […]

[2] = test system: MOLM-13 human acute myeloid leukemia cells; assay: Proliferation assay, MOLM-13 (Cell Titre-Glo); type: cell-based; conditions: MOLM-13, 72-hour exposure, read-out: Inhibition of MOLM-13 cell proliferation
Procedure: Non-adherent MOLM-13 human acute myeloid leukemia cells (DSMZ ACC 554) were seeded at a density of 5,000 cells/well in a 96-well multititer plate in 100 μL of growth medium supplemented 10% fetal calf serum. After 24 hours, cell viability of one plate (zero-point plate) was determined with the Cell Titre-Glo Luminescent Cell Viability Assay (Promega), while 50 μL of test compound containing medium was added to the wells of the other plates (final concentrations in the range of 0.001-10 μM and DMSO controls; the final concentration of the solvent dimethyl sulfoxide was 0.5%). Cell viability was assessed after 72-hour exposure with the Cell Titre-Glo Luminescent Cell Viability Assay (Promega). IC50 values (inhibitory concentration at 50% of maximal effect) were determined by means of a 4 parameter fit on measurement data which were normalized to vehicle (DMSO) treated cells (=100%) and measurement readings taken immediately before compound exposure (=0%).

Compound | IC50 [1] [nM] | IC50 [2] [nM]
CS(=N)(=O)Cc1cc(Nc2cc(-c3ccc(F)c4ccoc34)c(F)cn2)nc(C(F)(F)F)c1 (racemic) [Example 3, (rac)-5-Fluoro-4-(4-fluoro-1-benzofuran-7-yl)-N-{4-[(S-methylsulfonimidoyl)methyl]-6-(trifluoromethyl)pyridin-2-yl}pyridin-2-amine] | 10 | 6
CS(=N)(=O)Cc1ccnc(Nc2cc(-c3ccc(F)c4ccoc34)c(F)cn2)c1 (racemic) [Example 5, (rac)-5-Fluoro-4-(4-fluoro-1-benzofuran-7-yl)-N-{4-[(S-methylsulfonimidoyl)methyl]pyridin-2-yl}pyridin-2-amine] | 29 | 18
CCc1cc(CS(C)(=N)=O)cc(Nc2cc(-c3ccc(F)c4ccoc34)c(F)cn2)n1 (racemic) [Example 8, (rac)-N-{6-Ethyl-4-[(S-methylsulfonimidoyl)methyl]pyridin-2-yl}-5-fluoro-4-(4-fluoro-1-benzofuran-7-yl)pyridin-2-amine] | – | 3.9

Second part, the compound after the results:

IC50 [1] [nM] | IC50 [2] [nM] | Compound
11 | 16 | CS(=N)(=O)Cc1cc(F)nc(Nc2cc(-c3ccc(F)c4ccoc34)c(F)cn2)c1 (racemic) [Example 1, (rac)-5-Fluoro-4-(4-fluoro-1-benzofuran-7-yl)-N-{6-fluoro-4-[(S-methylsulfonimidoyl)methyl]pyridin-2-yl}pyridin-2-amine]
– | 6.3 | Cc1cc(CS(C)(=N)=O)cc(Nc2cc(-c3ccc(F)c4ccoc34)c(F)cn2)n1 (racemic) [Example 7, (rac)-5-Fluoro-4-(4-fluoro-1-benzofuran-7-yl)-N-{6-methyl-4-[(S-methylsulfonimidoyl)-methyl]pyridin-2-yl}pyridin-2-amine]
